According to patent US20110082087A1, “COMPOUNDS FOR TREATING PAIN” (Edificio ICAT, priority 2008, published 2011):

Tests used:
[1] = Partition into lipid bilayer vesicles (fluorescence titration); assay type: physicochemical; conditions: mammal-mimetic lipid bilayer vesicle; numerical treatment of fluorescence titration
Text: We performed biophysical studies using fluorescent methodologies in order to characterize the interaction of KTP-NH2 with liposomes representing human cell membranes (Santos N. C., Prieto M. and Castanho M. A. 2003. Quantifying molecular partition into model systems of biomembranes: an emphasis on optical spectroscopic methods. Biochim Biophys Acta 1612: 123-135.). A clear interaction of KTP-NH2 with the lipid bilayers was observed. […] When titrated with a mammal-mimetic lipid bilayer vesicle (circles), the fluorescence intensity of the phenolic moiety increases due to insertion in the apolar environment created by the lipids. The POPC system mimetizes the external layer of human cell membranes, whereas POPG lipidic mixture mimetizes the internal layer of human cell membranes.
In order to confirm that these plasma-stable KTP-NH2 derivatives maintained their lipophilicity, their potential interaction with human cell membranes was assessed. Again, we performed biophysical studies using fluorescent methodologies (Santos N. C., Prieto M. and Castanho M. A. 2003. Quantifying molecular partition into model systems of biomembranes: an emphasis on optical spectroscopic methods. Biochim Biophys Acta 1612: 123-135.).

rats (Wister, male) [2] = test: Increasing-temperature Hot Plate test; assay type: in vivo, rat
Experimental: In vivo behavioural anti-nociception tests were carried out in rats (Wister, male). Unless otherwise stated, compounds were administered by intra-peritoneal (i.p.) injection. For most assays, the Tail Flick and the Hot Plate tests were used.
The hot-plate test (Eddy N. B and Leimbach D. 1953. Synthetic analgesics II. Dithienylbutenyl and dithienylbutylamines J. Pharmacol. Exp. Ther. 45: 339) evaluates a supraspinally integrated response in the form of thermal pain reflexes due to footpad contact with a heated surface. During the experiments, the animal is confined in a removable clear acrylic compartment where the latency time to the first hind paw or/and jumping responses are measured. […] The response is the licking of the hindpaw, and the corresponding plate temperature represents the recorded nociceptive end-point. The advantage of Increasing-Temperature Hot-Plate test over the standard constant-temperature hot-plate test is the higher sensitivity and the lack of influences of pre-exposure to the hot-plate before testing. Animal reaction temperature is a measurement of animal resistance to pain and is used to measure efficacy of analgesics.

c-fos = test: Formalin-induced c-fos expression in spinal cord dorsal horn (immunohistochemistry); assay type: in vivo, rat; conditions: formalin-treated rats
monoarthritis rats = test: CFA-induced monoarthritis, Hargreaves and Tail Flick tests; assay type: in vivo, rat
Text: The subcutaneous intraplantar injection of complete Freund's adjuvant (CFA) into the local area of an animal can cause severe inflammatory pain around the injected area. This CFA-induced inflammatory pain has been widely used as a kind of pain model in the field of pain research since it was reported. Inflammatory pain was induced by an injection of complete Freund's adjuvant into the right hindpaw of the rats (S. H. Butler, F. Godefroy, J. M. Besson and J. Weilfugazza. 1992. A limited arthritic model for chronic pain studies in the rat. Pain, 48: 73-81). The paw withdrawal latency was used to assess the inflammatory pain according to the method of Hargreaves et al. (Hargreaves K, Dubner R, Brown F, Flores C, and Joris J. 1988. A new and sensitive method for measuring thermal nociception in cutaneous hyperalgesia. Pain 32: 77-88, 1988). The CFA-injected area of the right paw was placed on a constant-intensity radiant heat source and the time of paw-withdrawal latency was measured by observing the animal's paw-withdrawal response after applying initial heat to the left or right paws. Additionally, the Tail Flick test was performed in order to assess the secondary hyperalgesia.

rats = test: Rota-rod test (motor ability); assay type: in vivo, rat; conditions: 3.23 mg/100 g of body mass
Experimental: To evaluate the motor ability of animals after being injected with the drug (3.23 mg/100 g of body mass), the Rota-rod test was used. Briefly, the animal is placed on a wheel and run in balanced position; if balance is lost, the animal falls.

rats (Wister, male) [3] = test: Hepatotoxicity markers in plasma; assay type: in vivo, rat
Experimental: (§1) The toxicological studies were carried out with rats (Wister, male) injected i.p. once a day with 3.23 mg/100 g body mass during seven days.
Liver is the major organ of toxicity. Blood samples were collected and the following hepatotoxicity markers were assayed in the plasma: • Alanine transaminase (ALT), • Aspartate transaminase (AST) • Alkaline phosphatase (ALP) • Total bilirubin (TBILI) • Gamma glutamyl transpeptidase (GGT)
Increased levels of the liver enzymes ALT, AST, ALP and GGT in the plasma would indicate lesions in liver. Increased RBL would be a sign of faulty bilirubin production/hemolysis and/or bilirubin metabolism (in liver).

rats (Wister, male) [4] = test: Antioxidant capacity in plasma (ACW, ACL); assay type: in vivo, rat; conditions: i.p. once a day 3.23 mg/100 g for seven days
Experimental: as §1
Metabolization of KTP-NH2 in the organism might lead to an increase in its metabolite products and to the subsequent production of reactive oxygen species (ROS). As increased ROS levels are potentially harmful, KTP-NH2 potential to induce changes in antioxidant capacities in the plasma of animals was explored. Total antioxidant capacity of lipid-soluble (ACL) and water-soluble (ACW) constituents were determined.

CYP3A4 = CYP3A4 (Homo sapiens, UniProt P08684); test: CYP inhibition; assay type: in vitro ADME; conditions: probe substrates midazolan and testosterone
Chain of CYP3A4 (P08684 whole entry): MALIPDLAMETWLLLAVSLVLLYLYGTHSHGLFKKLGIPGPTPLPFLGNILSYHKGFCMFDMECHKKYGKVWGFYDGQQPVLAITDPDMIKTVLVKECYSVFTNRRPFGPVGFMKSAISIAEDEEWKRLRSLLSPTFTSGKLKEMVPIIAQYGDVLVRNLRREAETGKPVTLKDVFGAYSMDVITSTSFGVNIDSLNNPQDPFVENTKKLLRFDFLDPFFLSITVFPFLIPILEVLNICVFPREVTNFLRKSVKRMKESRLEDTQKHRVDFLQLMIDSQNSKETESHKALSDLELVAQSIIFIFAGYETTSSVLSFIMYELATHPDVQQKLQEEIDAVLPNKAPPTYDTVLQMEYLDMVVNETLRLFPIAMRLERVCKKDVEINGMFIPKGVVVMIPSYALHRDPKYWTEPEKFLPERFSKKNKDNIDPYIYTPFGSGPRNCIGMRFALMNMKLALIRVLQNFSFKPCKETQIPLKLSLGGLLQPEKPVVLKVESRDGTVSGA
Text: CYP3A4 is one of the most important enzymes involved in the metabolism of xenobiotics in the body, promoting the oxidation of the largest range of substrates of all the CYPs and is present in the largest quantity of all the CYPs in the liver.

[5] = Cytotoxicity (LDH release and ATP); assay type: cell-based; conditions: human hepatocytes; LDH and ATP determination; read-out: LC50 (the source's name)
Experimental: Cytotoxicity was assessed with a cell-based assay using human hepatocytes. Cell death was assayed by quantifying plasma membrane damage or rupture through measurement of the release of lactate dehydrogenase (LDH) (Legrand, C. et al. 1992. Lactate dehydrogenase (LDH) activity of the cultured eukaryotic cells as marker of the number of dead cells in the medium. J. Biotechnol. 25: 231-243), a stable cytoplasmic enzyme present in most cells. Determination of cell viability was performed by quantifying ATP (Cree I. A and Andreotti P. E. 1997. Measurement of cytotoxicity by ATP-based luminescence assay in primary cell cultures and cell lines. Toxicology in vitro, 11: 553-556), a marker for cell viability because it is present in all metabolically active cells and the concentration declines very rapidly when the cells undergo necrosis or apoptosis.

Plasma stability = assay type: in vitro ADME, human; conditions: after 1 h incubation
Text: Drugs are exposed in plasma to enzymatic processes (proteinases, esterases), they can undergo intramolecular rearrangement or bind irreversibly (covalently) to proteins. Compounds which are not stable in plasma have inherent liability as drug candidates, as they are less capable to reach a sufficient concentration at their site of pharmacological activity.

N=C(N)NCCC[C@H](NC(=O)[C@@H](N)Cc1ccc(O)cc1)C(N)=O [KTP-NH2, L-Tyr-L-Arg-NH2]
local concentration in the model membrane of mammals relative to surrounding bulk aqueous phase [1]: approx. 2500 fold | analgesic effect compared with ibuprofen (rats (Wister, male) [2]; Hot Plate, i.p.): more pronounced effect | duration of anti-nociceptive response (rats (Wister, male) [2]; Hot Plate, i.p., rat): 30 min | smallest dose tested with statistical significance (rats (Wister, male) [2]; Hot Plate, i.p., rat): 1.67 mg for 100 g of body mass | analgesic efficacy after oral administration (rats (Wister, male) [2]; Hot Plate, oral, rat): slight delay of the onset of effect | effect in hot plate test (rats (Wister, male) [2]; i.p., rat): clear anti-nociceptive response | formalin-induced c-fos protein expression in dorsal horn (c-fos): significantly decreased | analgesic effect in chronic inflammatory pain (monoarthritis rats): efficacy | motor ability, loss of balance (rats): No loss of balance/equilibrium | GGT in plasma (rats (Wister, male) [3]; i.p. once a day 3.23 mg/100 g for seven days): trace amounts, below the detection limit | hepatotoxicity markers AST, ALT, ALP, total bilirubin in plasma (rats (Wister, male) [3]; i.p. once a day 3.23 mg/100 g for seven days vs control): no toxic effects were detected | basal antioxidant capacity in plasma (ACL, ACW) (rats (Wister, male) [4]): does not induce significant modifications | CYP3A4 inhibition (CYP3A4): not to inhibit | CC50 [5]: > 125 µM | stability in human plasma (Plasma stability): 14-21%
